In experiment [1] the target is T1, AHR (Homo sapiens, UniProt P35869).
T1 construct: U87 MG glioblastoma cells (ATCC #HTB-14) endogenously expressing AHR; endogenous in cells; host or cells: U87 MG glioblastoma cells (ATCC #HTB-14)
T1 sequence (P35869 11-848): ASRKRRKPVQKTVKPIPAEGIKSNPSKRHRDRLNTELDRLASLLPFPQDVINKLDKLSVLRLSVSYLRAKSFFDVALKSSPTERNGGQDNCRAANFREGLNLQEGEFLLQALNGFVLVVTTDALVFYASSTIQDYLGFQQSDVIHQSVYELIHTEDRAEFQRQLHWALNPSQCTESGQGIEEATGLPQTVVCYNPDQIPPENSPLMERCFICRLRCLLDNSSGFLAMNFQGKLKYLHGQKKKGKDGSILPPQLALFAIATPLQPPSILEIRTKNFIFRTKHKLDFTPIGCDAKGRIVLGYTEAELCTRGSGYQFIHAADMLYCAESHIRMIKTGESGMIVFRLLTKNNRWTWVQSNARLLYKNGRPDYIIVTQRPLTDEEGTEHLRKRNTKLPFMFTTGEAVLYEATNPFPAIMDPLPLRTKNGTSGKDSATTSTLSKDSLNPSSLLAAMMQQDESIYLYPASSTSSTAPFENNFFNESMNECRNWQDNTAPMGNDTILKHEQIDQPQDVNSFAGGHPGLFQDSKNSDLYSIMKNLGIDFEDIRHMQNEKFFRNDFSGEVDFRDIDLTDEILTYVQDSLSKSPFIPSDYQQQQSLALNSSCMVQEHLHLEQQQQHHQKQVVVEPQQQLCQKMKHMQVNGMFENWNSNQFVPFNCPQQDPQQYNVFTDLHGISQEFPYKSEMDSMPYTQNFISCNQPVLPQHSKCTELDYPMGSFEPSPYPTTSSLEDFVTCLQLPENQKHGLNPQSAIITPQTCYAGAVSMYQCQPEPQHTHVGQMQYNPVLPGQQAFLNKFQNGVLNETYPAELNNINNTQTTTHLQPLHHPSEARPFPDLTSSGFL
Briefly: In vitro assay 1: antagonism in human cell line (AHR transactivation, firefly luciferase reporter, kynurenic acid prestimulated). Format: cell-based. The settings on record: AHR Antagonism Human IC50 [M], firefly luciferase reporter. The essentials:
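U87 MG + DRE-firefly/constitutive-Renilla stable reporters; kynurenic acid prestim; dual-luc read; Renilla = tox; normalized vs pos/neg controls (pos: 150 μM KYNA + 5 μM staurosporine).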
In general terms: A reporter such as luciferase makes a cellular process visible.

For experiment [2], the target named is T2, AHR (Mus musculus, UniProt P30561).
T2 sequence (P30561 1-848 P471L/N533S/M589L): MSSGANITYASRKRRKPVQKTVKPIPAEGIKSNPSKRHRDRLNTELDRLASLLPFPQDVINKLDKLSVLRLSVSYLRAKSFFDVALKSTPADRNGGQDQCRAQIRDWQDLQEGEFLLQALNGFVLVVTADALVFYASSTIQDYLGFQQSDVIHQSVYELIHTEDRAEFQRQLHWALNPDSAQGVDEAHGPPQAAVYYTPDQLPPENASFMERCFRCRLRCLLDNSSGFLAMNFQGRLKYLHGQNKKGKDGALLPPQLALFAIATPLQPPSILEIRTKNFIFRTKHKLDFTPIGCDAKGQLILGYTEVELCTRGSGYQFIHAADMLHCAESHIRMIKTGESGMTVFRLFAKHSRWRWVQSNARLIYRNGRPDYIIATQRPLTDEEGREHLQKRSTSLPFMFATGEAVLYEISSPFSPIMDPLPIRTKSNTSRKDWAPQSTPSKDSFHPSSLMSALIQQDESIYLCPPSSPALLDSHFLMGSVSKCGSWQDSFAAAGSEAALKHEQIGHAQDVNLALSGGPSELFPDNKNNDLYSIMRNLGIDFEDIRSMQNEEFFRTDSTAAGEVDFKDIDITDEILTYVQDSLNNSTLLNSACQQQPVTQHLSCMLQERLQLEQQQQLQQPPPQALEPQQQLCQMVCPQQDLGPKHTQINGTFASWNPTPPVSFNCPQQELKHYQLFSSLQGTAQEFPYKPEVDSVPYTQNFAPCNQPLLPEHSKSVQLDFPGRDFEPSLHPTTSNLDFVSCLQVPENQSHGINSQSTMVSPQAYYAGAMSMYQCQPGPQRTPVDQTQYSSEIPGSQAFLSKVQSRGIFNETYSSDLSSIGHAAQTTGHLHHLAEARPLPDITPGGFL
Briefly: In vitro assay 3: antagonism in mouse cell line (AHR transactivation, firefly luciferase reporter, kynurenic acid prestimulated). Format: cell-based. The note with it: Hepa 1c1c7 cells, 200 μM kynurenic acid, 20 hours, firefly luciferase reporter, read-out: AHR Antagonism Mouse IC50. The essentials: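 Cells were first stimulated with kynurenic acid, then exposed to test compound, after which firefly luciferase from a DRE-containing AHR reporter was read out. Signal was scaled between positive and negative controls. Cells not given kynurenic acid provided the inhibition reference.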

One may read the IC50 as the midpoint of a concentration-inhibition curve. For `CNCCNC(=O)[C@@H](C)Nc1nc2ccccc2c2nc(-c3ccc(OC)cc3)nn12` [Example 990, N^2-[2-(4-methoxyphenyl)[1,2,4]triazolo[1,5-c]quinazolin-5-yl]-N-[2-(methylamino)ethyl]-D-alaninamide-hydroxy chloride (1/1)], the values for the IC50 in experiment [1] and in experiment [2] were 4.29e-08 M and 73.6 nM, respectively.
For `CNCCNC(=O)[C@@H](C)Nc1nc2c(Br)cccc2c2nc(-c3cnn(C)c3)nn12` [Example 991, N^2-[7-bromo-2-(1-methyl-1H-pyrazol-4-yl)[1,2,4]triazolo[1,5-c]quinazolin-5-yl]-N-[2-(methylamino)ethyl]-D-alaninamide-hydrogen chloride (1/1)] the same measures were 3.13e-08 M and 76.6 nM.
As for `COc1ccc(-c2nc3c4cccc(Br)c4nc(N[C@H](C)C(=O)NCCN4CCNCC4)n3n2)cc1` [Example 992, N^2-[7-bromo-2-(4-methoxyphenyl)[1,2,4]triazolo[1,5-c]quinazolin-5-yl]-N-[2-(piperazin-1-yl)ethyl]-D-alaninamide-hydrogen chloride (1/2)], the IC50 in experiment [1] was found to be 3.94e-09 M; in experiment [2], 7.74 nM.
For the molecule `C[C@@H](Nc1nc2c(Br)cccc2c2nc(-c3cnn(C)c3)nn12)C(=O)NCCN1CCNCC1` [Example 993, N^2-[7-bromo-2-(1-methyl-1H-pyrazol-4-yl)[1,2,4]triazolo[1,5-c]quinazolin-5-yl]-N-[2-(piperazin-1-yl)ethyl]-D-alaninamide-hydrogen chloride (1/2)], the IC50 in experiment [1] stood at 5.88e-07 M; in experiment [2], 4590 nM.
Consider `CN1CCNC(=O)[C@H](Nc2nc3c(Br)cccc3c3nc(-c4cnn(C)c4)nn23)C1` [Example 994, (6R)-6-{[7-bromo-2-(1-methyl-1H-pyrazol-4-yl)[1,2,4]triazolo[1,5-c]quinazolin-5-yl]amino}-1-methyl-1,4-diazepan-5-one], for which the IC50 in experiment [1] is 2.32e-08 M; in experiment [2], 25.6 nM.
On the same counts, the results for `COc1ccc(-c2nc3c4cccc(Br)c4nc(N[C@@H]4CN(C)CCNC4=O)n3n2)cc1` [Example 995, (6R)-6-{[7-bromo-2-(4-methoxyphenyl)[1,2,4]triazolo[1,5-c]quinazolin-5-yl]amino}-1-methyl-1,4-diazepan-5-one] are 6.97e-10 M and 2.11 nM.
Regarding `COc1ccc(-c2nc3c4cccc(OCCC(C)(C)OC)c4nc(N[C@@H]4CCCCNC4=O)n3n2)cc1` [Example 996, (3R)-3-{[7-(3-methoxy-3-methylbutoxy)-2-(4-methoxyphenyl)[1,2,4]triazolo[1,5-c]quinazolin-5-yl]amino}azepan-2-one], the IC50 in experiment [1] came out at 2.8e-07 M; in experiment [2], 78.1 nM.
In the case of `COc1ccc(-c2nc3c4cccc(OCC(C)(C)O)c4nc(N[C@@H]4CCCCNC4=O)n3n2)cc1` [Example 997, (3R)-3-{[7-(2-hydroxy-2-methylpropoxy)-2-(4-methoxyphenyl)[1,2,4]triazolo[1,5-c]quinazolin-5-yl]amino}azepan-2-one], the values for the IC50 in experiment [1] and in experiment [2] were 8.11e-08 M and 138 nM, respectively.
For `COc1ccc(-c2nc3c4cccc(OC5CCC5)c4nc(N[C@@H]4CCCCNC4=O)n3n2)cc1` [Example 998, (3R)-3-{[7-(cyclobutyloxy)-2-(4-methoxyphenyl)[1,2,4]triazolo[1,5-c]quinazolin-5-yl]amino}azepan-2-one] the same measures were 4.16e-07 M and 279 nM.
For `COc1ccc(-c2nc3c4cccc(OC5CC5)c4nc(N[C@@H]4CCCCNC4=O)n3n2)cc1` [Example 999, (3R)-3-{[7-(cyclopropyloxy)-2-(4-methoxyphenyl)[1,2,4]triazolo[1,5-c]quinazolin-5-yl]amino}azepan-2-one] the same measures were 6.91e-09 M and 4.27 nM.
On the same counts, the results for `COc1ccc(-c2nc3c4cccc(OCCC(C)(C)O)c4nc(N[C@@H]4CCCCNC4=O)n3n2)cc1` [Example 1000, (3R)-3-{[7-(3-hydroxy-3-methylbutoxy)-2-(4-methoxyphenyl)[1,2,4]triazolo[1,5-c]quinazolin-5-yl]amino}azepan-2-one] are 9.07e-09 M and 8.3 nM.
`COc1ccc(-c2nc3c4cccc(N5CCCC5=O)c4nc(N[C@@H]4CCCCNC4=O)n3n2)cc1` [Example 1001, (3R)-3-{[2-(4-methoxyphenyl)-7-(2-oxopyrrolidin-1-yl)[1,2,4]triazolo[1,5-c]quinazolin-5-yl]amino}azepan-2-one]: the half-inhibitory concentration (IC50) in experiment [1] is 3.54e-07 M; in experiment [2] it was 5040 nM.
On the same counts, the results for `COc1ccc(-c2nc3c4cccc(C5COC5)c4nc(N[C@@H]4CCCCNC4=O)n3n2)cc1` [Example 1002, (3R)-3-{[2-(4-methoxyphenyl)-7-(oxetan-3-yl)[1,2,4]triazolo[1,5-c]quinazolin-5-yl]amino}azepan-2-one] are 1.26e-09 M and 42 nM.
For `COCc1cccc2c1nc(N[C@@H]1CCCCNC1=O)n1nc(-c3ccc(OC)cc3)nc21` [Example 1003, (3R)-3-{[7-(methoxymethyl)-2-(4-methoxyphenyl)[1,2,4]triazolo[1,5-c]quinazolin-5-yl]amino}azepan-2-one] the same measures were 9.15e-10 M and 4.06 nM.
As to `COCc1cccc2c1nc(N[C@@H]1CCCCNC1=O)n1nc(-c3cnn(C)c3)nc21` [Example 1004, (3R)-3-{[7-(methoxymethyl)-2-(1-methyl-1H-pyrazol-4-yl)[1,2,4]triazolo[1,5-c]quinazolin-5-yl]amino}azepan-2-one], the IC50 in experiment [1] is 1.9e-08 M; in experiment [2], 266 nM.
